Reference: ChEMBL document CHEMBL3885861, “Open TG-GATES”

Organism: Rattus norvegicus
Experiment: Open TG-GATES - Regimen: Single
Format: toxicity, organism-based, Sprague-Dawley
Set-up: regimen Single, gender Male, age 6 weeks
Details: in vivo, po, route gavage; for TC / TP / gamma-GTP / ALP / ALT / AST / CRE / DBIL / GLC / IP / K / LDH / Na / PL / RALB / TBIL / TG: tissue Plasma; for APTT / Bas / Eos / Fbg / Ht / Lym / MCH / MCHC / MCV / Mono / Neu / PT / RBC / Ret / WBC / Hb / Plat: tissue Blood; for KIDNEY_L / KIDNEY_R / KIDNEY_TOTAL: tissue Kidney; for LIVER: tissue Liver
[1] = 0 mg/kg, 24 h, dose level Control

Compound CC(C)Cc1ccc(C(C)C(=O)O)cc1 (centres undefined) [IBUPROFEN] has a TC [1] of 79.4 mg/dL, a TP [1] of 5.5 g/dL and a gamma-GTP [1] of 1.2 IU/L. The TERMINAL_BW (60 mg/kg, 3 h, dose level Low) was 204.2 g, the APTT (60 mg/kg, 3 h, dose level Low) was 21.7 s and the Bas (60 mg/kg, 3 h, dose level Low) was 0%. For the same compound, the Eos (60 mg/kg, 3 h, dose level Low) was 0%, the Fbg (60 mg/kg, 3 h, dose level Low) was 294.6 mg/dL and the Ht (60 mg/kg, 3 h, dose level Low) was 39.3%. It also gave a Lym (60 mg/kg, 3 h, dose level Low) of 73.8%, an MCH (60 mg/kg, 3 h, dose level Low) of 21.4 pg and an MCHC (60 mg/kg, 3 h, dose level Low) of 33.7%. The MCV (60 mg/kg, 3 h, dose level Low) was 63.8 fL, the Mono (60 mg/kg, 3 h, dose level Low) was 2.2% and the Neu (60 mg/kg, 3 h, dose level Low) was 22.6%. The PT (60 mg/kg, 3 h, dose level Low) was 15.3 s, the RBC (60 mg/kg, 3 h, dose level Low) was 618.2 x10_4/ul and the Ret (60 mg/kg, 3 h, dose level Low) was 7.9%. It also gave a WBC (60 mg/kg, 3 h, dose level Low) of 101.5 x10_2/uL, a KIDNEY_L (60 mg/kg, 3 h, dose level Low) of 0.9 g and a KIDNEY_R (60 mg/kg, 3 h, dose level Low) of 0.9 g. It also gave a KIDNEY_TOTAL (60 mg/kg, 3 h, dose level Low) of 1.7 g, an LIVER (60 mg/kg, 3 h, dose level Low) of 9.2 g and an ALP (60 mg/kg, 3 h, dose level Low) of 1434.6 IU/L. For the same compound, the ALT (60 mg/kg, 3 h, dose level Low) was 47.8 IU/L, the AST (60 mg/kg, 3 h, dose level Low) was 79.4 IU/L and the CRE (60 mg/kg, 3 h, dose level Low) was 0.2 mg/dL. It also gave a DBIL (60 mg/kg, 3 h, dose level Low) of 0.002 mg/dL, a GLC (60 mg/kg, 3 h, dose level Low) of 177 mg/dL and an IP (60 mg/kg, 3 h, dose level Low) of 8.4 mg/dL. It also gave a K (60 mg/kg, 3 h, dose level Low) of 4.1 meq/L, an LDH (60 mg/kg, 3 h, dose level Low) of 256 IU/L and a Na (60 mg/kg, 3 h, dose level Low) of 141.2 meq/L. The PL (60 mg/kg, 3 h, dose level Low) was 144.8 mg/dL, the RALB (60 mg/kg, 3 h, dose level Low) was 3 g/dL and the TBIL (60 mg/kg, 3 h, dose level Low) was 0.028 mg/dL. The TC (60 mg/kg, 3 h, dose level Low) was 85.2 mg/dL, the TG (60 mg/kg, 3 h, dose level Low) was 64.2 mg/dL and the TP (60 mg/kg, 3 h, dose level Low) was 5.4 g/dL. It also gave a gamma-GTP (60 mg/kg, 3 h, dose level Low) of 1.4 IU/L, a TERMINAL_BW (60 mg/kg, 6 h, dose level Low) of 205.3 g and an APTT (60 mg/kg, 6 h, dose level Low) of 23.2 s. For the same compound, the Bas (60 mg/kg, 6 h, dose level Low) was 0%, the Eos (60 mg/kg, 6 h, dose level Low) was 1% and the Fbg (60 mg/kg, 6 h, dose level Low) was 292.4 mg/dL. The Hb (60 mg/kg, 6 h, dose level Low) was 13.4 g/dL, the Ht (60 mg/kg, 6 h, dose level Low) was 39.3% and the Lym (60 mg/kg, 6 h, dose level Low) was 72.2%. The MCH (60 mg/kg, 6 h, dose level Low) was 21.6 pg, the MCHC (60 mg/kg, 6 h, dose level Low) was 34% and the MCV (60 mg/kg, 6 h, dose level Low) was 63.5 fL. It also gave a Mono (60 mg/kg, 6 h, dose level Low) of 2.6%, a PT (60 mg/kg, 6 h, dose level Low) of 16 s and a Plat (60 mg/kg, 6 h, dose level Low) of 116.1 x10_4/uL. The RBC (60 mg/kg, 6 h, dose level Low) was 619.4 x10_4/ul, the Ret (60 mg/kg, 6 h, dose level Low) was 8% and the WBC (60 mg/kg, 6 h, dose level Low) was 76.4 x10_2/uL. For the same compound, the KIDNEY_L (60 mg/kg, 6 h, dose level Low) was 0.9 g, the KIDNEY_R (60 mg/kg, 6 h, dose level Low) was 1 g and the KIDNEY_TOTAL (60 mg/kg, 6 h, dose level Low) was 1.9 g. It also gave an LIVER (60 mg/kg, 6 h, dose level Low) of 8.8 g, an ALP (60 mg/kg, 6 h, dose level Low) of 1432.6 IU/L and an ALT (60 mg/kg, 6 h, dose level Low) of 45 IU/L. The AST (60 mg/kg, 6 h, dose level Low) was 79.6 IU/L, the CRE (60 mg/kg, 6 h, dose level Low) was 0.1 mg/dL and the DBIL (60 mg/kg, 6 h, dose level Low) was 0.004 mg/dL. For the same compound, the GLC (60 mg/kg, 6 h, dose level Low) was 174.8 mg/dL, the IP (60 mg/kg, 6 h, dose level Low) was 9.6 mg/dL and the K (60 mg/kg, 6 h, dose level Low) was 4.5 meq/L. It also gave an LDH (60 mg/kg, 6 h, dose level Low) of 256.6 IU/L, a Na (60 mg/kg, 6 h, dose level Low) of 140 meq/L and a PL (60 mg/kg, 6 h, dose level Low) of 130.4 mg/dL. The RALB (60 mg/kg, 6 h, dose level Low) was 2.9 g/dL, the TBIL (60 mg/kg, 6 h, dose level Low) was 0.032 mg/dL and the TC (60 mg/kg, 6 h, dose level Low) was 72.6 mg/dL. The TG (60 mg/kg, 6 h, dose level Low) was 56 mg/dL, the TP (60 mg/kg, 6 h, dose level Low) was 5.1 g/dL and the gamma-GTP (60 mg/kg, 6 h, dose level Low) was 1.2 IU/L. The TERMINAL_BW (60 mg/kg, 9 h, dose level Low) was 199.8 g, the Bas (60 mg/kg, 9 h, dose level Low) was 0% and the Eos (60 mg/kg, 9 h, dose level Low) was 0.6%. For the same compound, the Fbg (60 mg/kg, 9 h, dose level Low) was 275 mg/dL, the Hb (60 mg/kg, 9 h, dose level Low) was 12.8 g/dL and the Ht (60 mg/kg, 9 h, dose level Low) was 38.1%. For the same compound, the Lym (60 mg/kg, 9 h, dose level Low) was 76.6%, the MCH (60 mg/kg, 9 h, dose level Low) was 21.5 pg and the MCHC (60 mg/kg, 9 h, dose level Low) was 33.6%. The MCV (60 mg/kg, 9 h, dose level Low) was 64.1 fL, the Mono (60 mg/kg, 9 h, dose level Low) was 2.6% and the Neu (60 mg/kg, 9 h, dose level Low) was 19.2%. It also gave a PT (60 mg/kg, 9 h, dose level Low) of 15.8 s, a Plat (60 mg/kg, 9 h, dose level Low) of 116.8 x10_4/uL and an RBC (60 mg/kg, 9 h, dose level Low) of 594.6 x10_4/ul. It also gave a Ret (60 mg/kg, 9 h, dose level Low) of 8.2%, a WBC (60 mg/kg, 9 h, dose level Low) of 66.8 x10_2/uL and a KIDNEY_L (60 mg/kg, 9 h, dose level Low) of 1 g. The KIDNEY_R (60 mg/kg, 9 h, dose level Low) was 1 g, the KIDNEY_TOTAL (60 mg/kg, 9 h, dose level Low) was 1.9 g and the LIVER (60 mg/kg, 9 h, dose level Low) was 8.2 g. The ALP (60 mg/kg, 9 h, dose level Low) was 1788.8 IU/L, the ALT (60 mg/kg, 9 h, dose level Low) was 40.8 IU/L and the AST (60 mg/kg, 9 h, dose level Low) was 72.4 IU/L. For the same compound, the CRE (60 mg/kg, 9 h, dose level Low) was 0.1 mg/dL, the DBIL (60 mg/kg, 9 h, dose level Low) was 0.006 mg/dL and the GLC (60 mg/kg, 9 h, dose level Low) was 174.8 mg/dL. For the same compound, the K (60 mg/kg, 9 h, dose level Low) was 4.4 meq/L, the LDH (60 mg/kg, 9 h, dose level Low) was 208.4 IU/L and the Na (60 mg/kg, 9 h, dose level Low) was 139.8 meq/L. It also gave an RALB (60 mg/kg, 9 h, dose level Low) of 2.9 g/dL, a TBIL (60 mg/kg, 9 h, dose level Low) of 0.026 mg/dL and a TC (60 mg/kg, 9 h, dose level Low) of 67 mg/dL. It also gave a TG (60 mg/kg, 9 h, dose level Low) of 58.6 mg/dL, a TP (60 mg/kg, 9 h, dose level Low) of 5.3 g/dL and a gamma-GTP (60 mg/kg, 9 h, dose level Low) of 1 IU/L. It also gave a TERMINAL_BW (60 mg/kg, 24 h, dose level Low) of 206.8 g, an APTT (60 mg/kg, 24 h, dose level Low) of 21.7 s and a Bas (60 mg/kg, 24 h, dose level Low) of 0%. It also gave an Eos (60 mg/kg, 24 h, dose level Low) of 1%, a Fbg (60 mg/kg, 24 h, dose level Low) of 309.8 mg/dL and a Ht (60 mg/kg, 24 h, dose level Low) of 40.6%. It also gave a Lym (60 mg/kg, 24 h, dose level Low) of 78.2%, an MCH (60 mg/kg, 24 h, dose level Low) of 21.6 pg and an MCHC (60 mg/kg, 24 h, dose level Low) of 34.1%. The MCV (60 mg/kg, 24 h, dose level Low) was 63.2 fL, the Mono (60 mg/kg, 24 h, dose level Low) was 3.2% and the Neu (60 mg/kg, 24 h, dose level Low) was 17%. The PT (60 mg/kg, 24 h, dose level Low) was 16.5 s, the Plat (60 mg/kg, 24 h, dose level Low) was 112 x10_4/uL and the RBC (60 mg/kg, 24 h, dose level Low) was 643.6 x10_4/ul. For the same compound, the Ret (60 mg/kg, 24 h, dose level Low) was 6.8%, the WBC (60 mg/kg, 24 h, dose level Low) was 119.2 x10_2/uL and the KIDNEY_L (60 mg/kg, 24 h, dose level Low) was 0.9 g. For the same compound, the KIDNEY_R (60 mg/kg, 24 h, dose level Low) was 0.9 g, the KIDNEY_TOTAL (60 mg/kg, 24 h, dose level Low) was 1.8 g and the LIVER (60 mg/kg, 24 h, dose level Low) was 9.8 g. For the same compound, the ALP (60 mg/kg, 24 h, dose level Low) was 1457.4 IU/L, the ALT (60 mg/kg, 24 h, dose level Low) was 46.6 IU/L and the AST (60 mg/kg, 24 h, dose level Low) was 76.8 IU/L. It also gave a CRE (60 mg/kg, 24 h, dose level Low) of 0.2 mg/dL, a DBIL (60 mg/kg, 24 h, dose level Low) of 0 mg/dL and a GLC (60 mg/kg, 24 h, dose level Low) of 183.6 mg/dL. It also gave an IP (60 mg/kg, 24 h, dose level Low) of 7.7 mg/dL, a K (60 mg/kg, 24 h, dose level Low) of 4.5 meq/L and an LDH (60 mg/kg, 24 h, dose level Low) of 274 IU/L. It also gave a Na (60 mg/kg, 24 h, dose level Low) of 141.6 meq/L, a PL (60 mg/kg, 24 h, dose level Low) of 142.2 mg/dL and an RALB (60 mg/kg, 24 h, dose level Low) of 3 g/dL. It also gave a TBIL (60 mg/kg, 24 h, dose level Low) of 0.004 mg/dL and a TC (60 mg/kg, 24 h, dose level Low) of 76.6 mg/dL.
